Source: patent publication US20100267561A1, “HERBICIDAL PYRIDAZINONE DERIVATIVES” (priority 2007, published 2010)

Experiments:
Type in all cases: in vivo
[1] = tested on: barnyardgrass (Echinochloa crus-galli); experiment: Test A pre-/postemergence plant response
Summary of the method: (§1)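 Seeds in loam soil/sand blend treated preemergence by directed soil spray, with simultaneous postemergence spray on 2–10 cm plants at one- to two-leaf stage; compounds in non-phytotoxic solvent with surfactant. Injury visually rated versus untreated controls after about 10 days in greenhouse, 0 (no effect) to 100 (complete control).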

corn (Zea mays) = experiment: Test A pre-/postemergence plant response
Summary of the method: as §1

[2] = tested on: giant foxtail (Setaria faberi); experiment: Test A pre-/postemergence plant response
Summary of the method: as §1

[3] = tested on: large crabgrass (Digitaria sanguinalis); experiment: Test A pre-/postemergence plant response
Summary of the method: as §1

[4] = tested on: morningglory (Ipomoea coccinea); experiment: Test A pre-/postemergence plant response
Summary of the method: as §1

[5] = tested on: pigweed (Amaranthus retroflexus); experiment: Test A pre-/postemergence plant response
Summary of the method: as §1

[6] = tested on: velvetleaf (Abutilon theophrasti); experiment: Test A pre-/postemergence plant response
Summary of the method: as §1

[7] = tested on: wheat (Triticum aestivum); experiment: Test A pre-/postemergence plant response
Summary of the method: as §1

[8] = tested on: surinam grass (Brachiaria decumbens); experiment: Test B pre-/postemergence plant response; details: Preemergence; for Surinam Grass plant response rating: scale 0 to 100
Source text: Seeds of plant species selected from blackgrass (Alopecurus myosuroides), downy bromegrass (Bromus tectorum), green foxtail (Setaria viridis), Italian ryegrass (Lolium multiflorum), wheat (Triticum aestivum), wild oat (Avena fatua), catchweed bedstraw (Galium aparine), bermudagrass (Cynodon dactylon), surinam grass (Brachiaria decumbens), cocklebur (Xanthium strumarium), corn (Zea mays), large crabgrass (Digitaria sanguinalis), woolly cupgrass (Eriochloa villosa), giant foxtail (Setaria faberii), goosegrass (Eleusine indica), johnsongrass (Sorghum halepense), kochia (Kochia scoparia), lambsquarters (Chenopodium album), morningglory (Ipomoea coccinea), eastern black (E.B.) nightshade (Solanum ptycanthum), yellow nutsedge (Cyperus esculentus), pigweed (Amaranthus retroflexus), common ragweed (Ambrosia elation), Russian thistle (Salsola iberica), soybean (Glycine max), common (oilseed) sunflower (Helianthus annuus), and velvetleaf (Abutilon theophrasti) were planted and treated preemergence with test chemicals formulated in a non-phytotoxic solvent mixture which included a surfactant.
At the same time, plants selected from these crop and weed species and also winter barley (Hordeum vulgare), canarygrass (Phalaris minor), chickweed (Stellaria media) and windgrass (Apera spica-venti) were treated with postemergence applications of some of the test chemicals formulated in the same manner. Plants ranged in height from 2 to 18 cm (1- to 4-leaf stage) for postemergence treatments.
Plant species in the flooded paddy test consisted of rice (Oryza sativa), umbrella sedge (Cyperus difformis), ducksalad (Heteranthera limosa) and barnyardgrass (Echinochloa crus-galli) grown to the 2-leaf stage for testing. At time of treatment, test pots were flooded to 3 cm above the soil surface, treated by application of test compounds directly to the paddy water, and then maintained at that water depth for the duration of the test. Treated plants and controls were maintained in a greenhouse for 13 to 15 days, after which time all species were compared to controls and visually evaluated. Plant response ratings, summarized in Table B, are based on a scale of 0 to 100 where 0 is no effect and 100 is complete control. A dash (-) response means no test result.

[9] = Postemergence, 31 g ai/ha, 0 to 100 scale (0 no effect, 100 complete control)
[10] = Postemergence, 125 g ai/ha, 0 to 100 scale, 0 no effect, 100 complete control
[11] = Preemergence, 31 g ai/ha, 0 to 100 scale, 0 is no effect, 100 is complete control
[12] = Preemergence, 125 g ai/ha, 0 to 100 scale (0 no effect, 100 complete control)
[13] = 31 g ai/ha, scale 0 to 100 (0 no effect, 100 complete control)
[14] = 62 g ai/ha, 0 to 100 scale, 0 no effect, 100 complete control

| Structure (SMILES) | Plant response rating, Barnyardgrass [1, 9] | Plant response rating, Barnyardgrass [1, 10] | Plant response rating, Barnyardgrass [1, 11] | Plant response rating, Barnyardgrass [1, 12] | Plant response rating, Corn (corn (Zea mays); [9]) | Plant response rating, Corn (corn (Zea mays); [10]) | Plant response rating, Corn (corn (Zea mays); [11]) | Plant response rating, Corn (corn (Zea mays); [12]) | Plant response rating, Foxtail, Giant [2, 9] | Plant response rating, Foxtail, Giant [2, 10] | Plant response rating, Foxtail, Giant [2, 11] | Plant response rating, Foxtail, Giant [2, 12] | Plant response rating, Crabgrass, Large [3, 9] | Plant response rating, Crabgrass, Large [3, 10] | Plant response rating, Crabgrass, Large [3, 11] | Plant response rating, Crabgrass, Large [3, 12] | Plant response rating, Morningglory [4, 9] | Plant response rating, Morningglory [4, 10] | Plant response rating, Morningglory [4, 11] | Plant response rating, Morningglory [4, 12] | other results |
| --- | --- | --- | --- | --- | --- | --- | --- | --- | --- | --- | --- | --- | --- | --- | --- | --- | --- | --- | --- | --- | --- |
| Cc1cc(-c2ccc(Cl)cc2)nn1-c1c(OS(=O)(=O)c2ccccc2[N+](=O)[O-])cnn(C)c1=O [Compound 51] | 20 | 80 | 80 | 100 | 20 | 60 | 20 | 80 | 20 | 70 | 90 | 100 | 20 | 70 | 90 | 100 | 0 | 0 | 0 | 0 | Plant response rating, Pigweed [5, 9]: 0; Plant response rating, Pigweed [5, 10]: 0; Plant response rating, Pigweed [5, 12]: 0; Plant response rating, Velvetleaf [6, 9]: 0; Plant response rating, Velvetleaf [6, 10]: 0; Plant response rating, Velvetleaf [6, 11]: 0; Plant response rating, Velvetleaf [6, 12]: 0; Plant response rating, Wheat [7, 9]: 0; Plant response rating, Wheat [7, 10]: 40; Plant response rating, Wheat [7, 11]: 40; Plant response rating, Wheat [7, 12]: 80; Plant response rating, Surinam Grass [8, 13]: 90; Plant response rating, Surinam Grass [8, 14]: 100; Surinam Grass plant response rating ([8]; 8 g ai/ha): 30; Surinam Grass plant response rating ([8]; 16 g ai/ha): 75 |
| C#CCOC(=O)Oc1cnn(C)c(=O)c1-n1nc(-c2ccc(Cl)cc2)cc1C [Compound 58] | 0 | 80 | 50 | 100 | 0 | 60 | 0 | 20 | 20 | 90 | 90 | 100 | 0 | 70 | 60 | 90 | 0 | 0 | 0 | 0 | Plant response rating, Pigweed [5, 9]: 0; Plant response rating, Pigweed [5, 10]: 0; Plant response rating, Pigweed [5, 11]: 0; Plant response rating, Pigweed [5, 12]: 0; Plant response rating, Velvetleaf [6, 9]: 0; Plant response rating, Velvetleaf [6, 10]: 0; Plant response rating, Velvetleaf [6, 11]: 0; Plant response rating, Velvetleaf [6, 12]: 0; Plant response rating, Wheat [7, 9]: 0; Plant response rating, Wheat [7, 10]: 60; Plant response rating, Wheat [7, 11]: 20; Plant response rating, Wheat [7, 12]: 70; Plant response rating, Surinam Grass [8, 13]: 98; Plant response rating, Surinam Grass [8, 14]: 100; Surinam Grass plant response rating ([8]; 8 g ai/ha): 95; Surinam Grass plant response rating ([8]; 16 g ai/ha): 98 |
